Patent US10858362B2, “Imidazopyrazinones as PDE1 inhibitors” (H. Lundbeck A/S, priority 2015, dated 2020)
pIC50: −log10 of the molar value.

How the values were obtained:
Type in all cases: biochemical
PDE1A = PDE1A (Homo sapiens (Human), UniProt P54750); experiment: PDE1 inhibition assay, PDE1A; settings: for pIC50: 15 nM tritium labelled cAMP
Description: (§1) Reactions were initiated by addition of the cyclic nucleotide substrate, and reactions were allowed to proceed for 1 h at room temperature before being terminated through mixing with 20 μL (0.2 mg) yttrium silicate SPA beads (PerkinElmer).

PDE1B = PDE1B (Homo sapiens (Human), UniProt Q01064); experiment: PDE1 inhibition assay, PDE1B; settings: for pIC50: 15 nM tritium labelled cAMP
Description: as §1, with “(PerkinElmer). The beads were allowed to settle for 1 h in the dark before the plates were counted in a Wallac 1450 Microbeta counter.” for “(PerkinElmer).”

PDE1C = PDE1C (Homo sapiens (Human), UniProt Q14123); experiment: PDE1 inhibition assay, PDE1C; settings: for pIC50: 15 nM tritium labelled cAMP
Description: as §1, with “(PerkinElmer). The beads were allowed to settle for 1 h in the dark before the plates were counted in a Wallac 1450 Microbeta counter.” for “(PerkinElmer).”

PDE9 = PDE9 (Homo sapiens (Human), UniProt O76083); experiment: PDE9 inhibition assay
Description: A PDE9 assay may for example, be performed as follows: The assay is performed in 60 μL samples containing a fixed amount of the relevant PDE enzyme (sufficient to convert 20-25% of the cyclic nucleotide substrate), a buffer (50 mM HEPES7.6; 10 mM MgCl2; 0.02% Tween20), 0.1 mg/ml BSA, 225 pCi of ^3H-labelled cyclic nucleotide substrate, tritium labeled cAMP to a final concentration of 5 nM and varying amounts of inhibitors. Reactions are initiated by addition of the cyclic nucleotide substrate, and reactions are allowed to proceed for one hr at room temperature before being terminated through mixing with 15 μL 8 mg/mL yttrium silicate SPA beads (Amersham). The beads are allowed to settle for one hr in the dark before the plates are counted in a Wallac 1450 Microbeta counter.
In the context of the present invention the assay was performed in 60 μL assay buffer (50 mM HEPES pH 7.6; 10 mM MgCl2; 0.02% Tween20) containing enough PDE9 to convert 20-25% of 10 nM ^3H-cAMP and varying amounts of inhibitors. Following a 1 hr incubation the reactions were terminated by addition of 15 μL 8 mg/mL yttrium silicate SPA beads (Amersham). The beads were allowed to settle for one hr in the dark before the plates were counted in a Wallac 1450 Microbeta counter.

Sequence of PDE1B (Q01064 whole entry): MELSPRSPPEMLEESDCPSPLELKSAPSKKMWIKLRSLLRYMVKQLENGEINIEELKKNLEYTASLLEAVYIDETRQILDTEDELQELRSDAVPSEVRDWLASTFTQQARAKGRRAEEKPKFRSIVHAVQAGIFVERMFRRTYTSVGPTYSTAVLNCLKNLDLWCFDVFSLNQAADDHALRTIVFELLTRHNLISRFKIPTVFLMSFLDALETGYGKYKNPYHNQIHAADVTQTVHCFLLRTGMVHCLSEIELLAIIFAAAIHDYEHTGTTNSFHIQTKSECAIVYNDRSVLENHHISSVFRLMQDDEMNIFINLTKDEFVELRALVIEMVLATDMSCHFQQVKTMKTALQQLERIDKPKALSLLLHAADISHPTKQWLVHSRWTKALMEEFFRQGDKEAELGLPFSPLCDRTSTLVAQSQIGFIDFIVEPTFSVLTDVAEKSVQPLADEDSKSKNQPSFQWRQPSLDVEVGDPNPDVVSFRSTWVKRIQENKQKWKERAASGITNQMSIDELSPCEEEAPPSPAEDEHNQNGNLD
Sequence of PDE1C (Q14123 whole entry): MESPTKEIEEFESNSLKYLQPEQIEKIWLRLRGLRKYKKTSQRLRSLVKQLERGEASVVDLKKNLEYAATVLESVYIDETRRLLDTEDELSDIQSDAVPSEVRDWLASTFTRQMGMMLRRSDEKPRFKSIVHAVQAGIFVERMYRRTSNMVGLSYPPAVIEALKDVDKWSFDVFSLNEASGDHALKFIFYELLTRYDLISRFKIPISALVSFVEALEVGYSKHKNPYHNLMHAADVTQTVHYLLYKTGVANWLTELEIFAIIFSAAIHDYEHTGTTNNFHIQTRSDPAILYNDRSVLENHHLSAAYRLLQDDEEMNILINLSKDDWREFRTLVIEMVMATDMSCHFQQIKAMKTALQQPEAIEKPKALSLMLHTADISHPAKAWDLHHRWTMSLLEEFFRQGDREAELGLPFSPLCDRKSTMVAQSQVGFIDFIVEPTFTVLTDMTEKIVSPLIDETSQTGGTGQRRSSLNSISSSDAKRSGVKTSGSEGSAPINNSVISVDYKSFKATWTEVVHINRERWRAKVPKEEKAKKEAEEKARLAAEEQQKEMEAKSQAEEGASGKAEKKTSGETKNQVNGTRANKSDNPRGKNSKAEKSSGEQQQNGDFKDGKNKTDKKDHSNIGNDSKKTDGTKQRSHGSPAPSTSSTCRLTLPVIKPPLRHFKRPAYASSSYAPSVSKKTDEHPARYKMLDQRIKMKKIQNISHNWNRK
Sequence of PDE1A (P54750 whole entry): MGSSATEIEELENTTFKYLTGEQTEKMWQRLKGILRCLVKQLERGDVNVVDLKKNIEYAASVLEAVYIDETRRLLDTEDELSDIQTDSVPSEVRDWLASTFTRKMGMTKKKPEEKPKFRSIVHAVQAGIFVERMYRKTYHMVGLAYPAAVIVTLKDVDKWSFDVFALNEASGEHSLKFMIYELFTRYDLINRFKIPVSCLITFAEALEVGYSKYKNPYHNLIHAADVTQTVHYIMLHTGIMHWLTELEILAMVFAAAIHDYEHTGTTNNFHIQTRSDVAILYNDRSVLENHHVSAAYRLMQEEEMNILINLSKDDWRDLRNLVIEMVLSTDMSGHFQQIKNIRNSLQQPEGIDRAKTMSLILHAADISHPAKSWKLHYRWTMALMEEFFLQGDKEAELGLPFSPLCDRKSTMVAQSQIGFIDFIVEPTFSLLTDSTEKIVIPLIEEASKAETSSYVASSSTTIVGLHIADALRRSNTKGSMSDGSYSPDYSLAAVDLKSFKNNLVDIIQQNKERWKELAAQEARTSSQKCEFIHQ
Sequence of PDE9 (O76083 whole entry): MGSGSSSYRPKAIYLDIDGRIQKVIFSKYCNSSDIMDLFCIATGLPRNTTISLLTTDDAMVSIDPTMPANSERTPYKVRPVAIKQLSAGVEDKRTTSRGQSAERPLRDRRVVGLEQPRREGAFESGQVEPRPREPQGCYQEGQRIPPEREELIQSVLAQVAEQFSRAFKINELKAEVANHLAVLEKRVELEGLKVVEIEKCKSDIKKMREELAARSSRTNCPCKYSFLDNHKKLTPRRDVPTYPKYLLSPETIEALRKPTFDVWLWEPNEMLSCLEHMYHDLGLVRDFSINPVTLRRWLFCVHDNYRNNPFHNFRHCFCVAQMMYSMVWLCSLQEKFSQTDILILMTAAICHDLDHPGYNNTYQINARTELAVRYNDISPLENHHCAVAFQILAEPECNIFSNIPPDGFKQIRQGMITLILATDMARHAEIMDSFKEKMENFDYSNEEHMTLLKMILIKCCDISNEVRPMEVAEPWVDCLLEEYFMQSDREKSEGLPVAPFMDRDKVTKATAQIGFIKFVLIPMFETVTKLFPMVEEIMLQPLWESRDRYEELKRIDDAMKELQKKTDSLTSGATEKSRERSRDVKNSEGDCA

SMILES	pIC50 (PDE1A)	pIC50 (PDE1B)	pIC50 (PDE1C)	inhibition at 10 µM (PDE9) [%]	% inhibition of PDE9 at 10 microM (PDE9) [%]	inhibition at 2 µM (PDE1A; read-out: PDE1A, % inhibition (at 2 μM)) [%]	inhibition at 2 µM (PDE1B; read-out: PDE1B, % inhibition (at 2 μM)) [%]	inhibition at 1 µM (PDE1A; read-out: PDE1A, % inhibition (at 1 μM)) [%]	inhibition at 1 µM (PDE1C; read-out: PDE1C, % inhibition (at 1 μM)) [%]	PDE1A, % inhibition (at 10 μM) (PDE1A; at 10 μM) [%]
COc1ccc(Cn2c(C)cn3c([C@@H]4CCO[C@H]4C)ncc3c2=O)cc1 (single isomer, unassigned; isomer 2) [55, isomer 2]	–	7.19	–	–	−13	–	–	–	–	–
Cc1cn2c(C3(C)CC3)ncc2c(=O)n1Cc1cccc(F)c1 [Example 33, 7-(3-fluorobenzyl)-6-methyl-3-(1-methylcyclopropyl)imidazo[1,5-a]pyrazin-8(7H)-one]	7.03	7.28	8.15	-2	–	–	–	–	–	–
O=c1c2cnc(C3CCOCC3)n2ccn1CC1CCCC1 [Example 10, 7-(Cyclopentylmethyl)-3-(tetrahydro-2H-pyran-4-yl)imidazo[1,5-a]pyrazin-8(7H)-one]	–	–	7.10	8	–	73	88	–	–	–
COc1ccc(Cn2c(C)cn3c(N4CCOC[C@H]4C)ncc3c2=O)cc1 [Example 95, (R)-7-(4-methoxybenzyl)-6-methyl-3-(3-methylmorpholino)imidazo[1,5-a]pyrazin-8(7H)-one]	6.59	6.79	6.66	9	–	–	–	–	–	–
Cc1cn2c(C3CCOCC3)ncc2c(=O)n1Cc1ccc(N)cc1 [Example 52, 7-(4-aminobenzyl)-6-methyl-3-(tetrahydro-2H-pyran-4-yl)imidazo[1,5-a]pyrazin-8(7H)-one]	–	6.41	–	-3	–	–	–	0	10	–
Cc1cn2c(N3CCC4OCCC43)ncc2c(=O)n1Cc1cccc(F)c1 (single isomer, unassigned; isomer 2) [99, isomer 2]	–	6.12	6.92	–	6	–	–	–	–	47

Further lines, results first:

pIC50 (PDE1A)	pIC50 (PDE1B)	pIC50 (PDE1C)	inhibition at 10 µM (PDE9) [%]	% inhibition of PDE9 at 10 microM (PDE9) [%]	inhibition at 2 µM (PDE1A; read-out: PDE1A, % inhibition (at 2 μM)) [%]	inhibition at 2 µM (PDE1B; read-out: PDE1B, % inhibition (at 2 μM)) [%]	inhibition at 1 µM (PDE1A; read-out: PDE1A, % inhibition (at 1 μM)) [%]	inhibition at 1 µM (PDE1C; read-out: PDE1C, % inhibition (at 1 μM)) [%]	PDE1A, % inhibition (at 10 μM) (PDE1A; at 10 μM) [%]	SMILES
7.24	7.31	8.10	31	–	–	–	–	–	–	Cc1cn2c(C3CCOCC3)ncc2c(=O)n1Cc1cccc(Cl)c1 [Example 18, 7-(3-Chlorobenzyl)-6-methyl-3-(tetrahydro-2H-pyran-4-yl)imidazo[1,5-a]pyrazin-8(7H)-one]
7.32	7.42	7.29	–	–	–	–	–	–	–	COc1ccc(Cn2c(C)cn3c(N4CCOC[C@@H]4C)ncc3c2=O)cc1 [Example 96, (S)-7-(4-methoxybenzyl)-6-methyl-3-(3-methylmorpholino)imidazo[1,5-a]pyrazin-8(7H)-one]
–	–	–	–	−1	–	–	–	–	–	Cc1cn2c(C3C[C@H]3F)ncc2c(=O)n1Cc1cccc(F)c1 (single isomer, unassigned; isomer 1) [38, isomer 1]
8.15	8.22	8.40	–	−3	–	–	–	–	–	Cc1cn2c(C3CCOCC3)ncc2c(=O)n1C[C@H]1CC[C@@H](C)CC1 [66, cis]
6.38	6.76	7.21	-38	–	–	–	–	–	–	COc1cccc(Cn2c(C)cn3c(C4CCOCC4)ncc3c2=O)c1 [Example 20, 7-(3-Methoxybenzyl)-6-methyl-3-(tetrahydro-2H-pyran-4-yl)imidazo[1,5-a]pyrazin-8(7H)-one]
6.95	7.14	7.37	18	–	–	–	–	–	–	O=c1c2cnc(C3CCOCC3)n2ccn1CC1CCCCC1 [Example 11, 7-(Cyclohexylmethyl)-3-(tetrahydro-2H-pyran-4-yl)imidazo[1,5-a]pyrazin-8(7H)-one]
6.40	6.77	7.40	–	16	–	–	–	–	–	Cc1cn2c(C3(C)CCOC3)ncc2c(=O)n1Cc1cccc(F)c1 (single isomer, unassigned; isomer 2) [32, isomer 2]
7.12	7.55	7.17	50	–	–	–	–	–	–	Cc1ccc(Cn2c(C)cn3c(C4CCOCC4)ncc3c2=O)cc1 [Example 22, 6-Methyl-7-(4-methylbenzyl)-3-(tetrahydro-2H-pyran-4-yl)imidazo[1,5-a]pyrazin-8(7H)-one]
5.35	5.64	5.79	-4	–	–	–	–	–	–	Cc1cc(Cn2c(C)cn3c(C4CCOCC4)ncc3c2=O)on1 [Example 83, 6-methyl-7-((3-methylisoxazol-5-yl)methyl)-3-(tetrahydro-2H-pyran-4-yl)imidazo[1,5-a]pyrazin-8(7H)-one]
